The test system of series [1] is PC-9 (ex19del) tumor xenograft. The series can be described thus: PC-9.
Series [2] relates to EGFR^L858R + T790M driven lung adenocarcinomas (C/L+T mice). The series can be described thus: C/L+T transgenic lung adenocarcinoma model. The settings on record: AZD9291 5 mg/kg/day, afatinib 7.5 mg/kg/day, AZ5104 5 mg/kg/day; one to two weeks.
A further series relates to NCI-H820 cells. The series can be described thus: Large cell panel proliferation profiling study. Type of series: cell-based. The settings on record: NCI-H820, read-out: IC50, proliferation.
Series [3] relates to approximately 280 other kinases. The series can be described thus: Commercial biochemical kinome panel.
A further series deals with EBC-1 cells. The series can be described thus: Large cell panel proliferation profiling study. Type of series: cell-based. The settings on record: Homo sapiens, EBC-1, read-out: IC50, proliferation.
Series [4] has as its system phospho-EGFR and downstream markers. To be noted: 5mg/kg dosing.
Series [5] can be described thus: Body weight of xenograft-bearing mice on daily dosing. Type of series: in vivo, mouse. To be noted: daily dosing for 200 days, PC-9 and H1975 studies.
A short description of series [6]: Blood glucose and insulin levels after single oral dose in rats. The class given is in vivo, rat. To be noted: single oral dose of 200 mg/kg, over a 24 hour period.
Series [7] has as its system EGFR L861Q, G719S and exon 19 insertion (I744-K745insKIPVAI). The series can be described thus: Phospho-EGFR immunoblot in transfected 293 cells, rare sensitive mutants. The class given is cell-based. To be noted: 6 hours.
The nature of series [8]: Pharmacokinetics after oral dosing in the mouse. The class given is in vivo.
Series [9] can be described thus: Preliminary clinical pharmacokinetics, AURA Phase 1. The class given is in vivo, human.
The test system of series [10] is phospho-EGFR (Tyr1173) in H1975 xenografts. The series can be described thus: Pharmacodynamics in H1975 xenografts. Type of series: in vivo, mouse. To be noted: single dose 5 mg/kg.
The subject of series [11] is Parental EGFRm+ lines (PC-9, H3255, HCC827, HCC4006, 11-18). The series can be described thus: Growth inhibition assay. To be noted: independent laboratory. Type of series: cell-based.
Series [12] deals with EGFR^L858R driven lung adenocarcinomas (C/L858R mice). The series can be described thus: C/L858R transgenic lung adenocarcinoma model.
The target of another series is IGF-1R (Homo sapiens, UniProt P08069). The series can be described thus: Cellular IGF-1R phosphorylation assay. Type of series: cell-based. The settings on record: cellular phosphorylation assay as surrogate.
Series [13] has as its system advanced EGFRm+ T790M NSCLC. The series can be described thus: Radiographic tumor response. The class given is in vivo, human. To be noted: for tumor shrinkage: 20 mg once daily.
For series [14], the system named is H1781 cells (VC insertion at G776 in exon 20 of HER2). The series can be described thus: Growth inhibition of HER2 mutant H1781 cells. The class given is cell-based. To be noted: NCI-H1781, read-out: IC50, growth.
The test system of series [15] is lines harboring non-T790M resistance: 11-18/ER (NRAS), HCC827/ER2 (MET amplification), HCC4006/ER (EMT). The settings on record: independent laboratory.
The subject of the next series is A431 xenografts. To be noted: 5 mg/kg/day.
Series [16] in a line: Adverse events and blood glucose in two patients, AURA Phase 1. Type of series: in vivo, human.
The subject of series [17] is lines harboring EGFR T790M (H1975, HCC827/ER1, PC-9/BRc1 and H3255/XLR). To be noted: independent laboratory.
The target in another series is HER2 (ErbB2) (Homo sapiens, UniProt P04626). The series can be described thus: Cellular HER2 phosphorylation. To be noted: three cellular approaches. The class given is cell-based.
In series [18] the test system is T790M EGFR cell lines (H1975, PC-9VanR). The settings on record: compared to AZD9291.
The test system of series [19] is wild-type EGFR cell lines (Calu3, H2073). The series can be described thus: Sytox Green live/dead cell phenotype assay, wild-type EGFR lines. The class given is cell-based. To be noted: compared to AZD9291.
Series [20] deals with EGFR^L858R driven lung adenocarcinomas (C/L858R mice). To be noted: cited from earlier work.
Series [21] has as its system EGFR^L858R + T790M driven lung adenocarcinomas (C/L+T mice). The settings on record: cited from earlier work.
In series [22] the target is EGFR variant III (EGFRvIII) (Homo sapiens, UniProt P00533, DELINS30-297G). The series can be described thus: Phospho-EGFR immunoblot in transfected 293 cells, EGFRvIII. Type of series: cell-based. To be noted: 6 hours.
Series [23] deals with mutant and wild-type EGFR cell lines. The series can be described thus: Sytox phenotypic assay across cell lines. The class given is cell-based.
Series [24] has as its target wild-type EGFR (A431, LOVO, NCI-H2073) (Homo sapiens, UniProt P00533). The series can be described thus: In vitro EGFR phosphorylation assay. The class given is cell-based. To be noted: read-out: potency against wild-type EGFR.
Series [25] has as its system EGFR in mutant and wild-type cell lines. The series can be described thus: In vitro EGFR phosphorylation assay, mutant and wild-type cell lines overall. The settings on record: compared to AZD9291.
Setting [26] is: patients, AZD9291 mesylate 20 mg oral, preliminary.

The source of these data is paper PMC4315625 (Cancer discovery, 2014).

Like-named read-outs stand apart in the source and are kept apart here.

IGF-1R, sequence (P08069 31-1367, species assumed): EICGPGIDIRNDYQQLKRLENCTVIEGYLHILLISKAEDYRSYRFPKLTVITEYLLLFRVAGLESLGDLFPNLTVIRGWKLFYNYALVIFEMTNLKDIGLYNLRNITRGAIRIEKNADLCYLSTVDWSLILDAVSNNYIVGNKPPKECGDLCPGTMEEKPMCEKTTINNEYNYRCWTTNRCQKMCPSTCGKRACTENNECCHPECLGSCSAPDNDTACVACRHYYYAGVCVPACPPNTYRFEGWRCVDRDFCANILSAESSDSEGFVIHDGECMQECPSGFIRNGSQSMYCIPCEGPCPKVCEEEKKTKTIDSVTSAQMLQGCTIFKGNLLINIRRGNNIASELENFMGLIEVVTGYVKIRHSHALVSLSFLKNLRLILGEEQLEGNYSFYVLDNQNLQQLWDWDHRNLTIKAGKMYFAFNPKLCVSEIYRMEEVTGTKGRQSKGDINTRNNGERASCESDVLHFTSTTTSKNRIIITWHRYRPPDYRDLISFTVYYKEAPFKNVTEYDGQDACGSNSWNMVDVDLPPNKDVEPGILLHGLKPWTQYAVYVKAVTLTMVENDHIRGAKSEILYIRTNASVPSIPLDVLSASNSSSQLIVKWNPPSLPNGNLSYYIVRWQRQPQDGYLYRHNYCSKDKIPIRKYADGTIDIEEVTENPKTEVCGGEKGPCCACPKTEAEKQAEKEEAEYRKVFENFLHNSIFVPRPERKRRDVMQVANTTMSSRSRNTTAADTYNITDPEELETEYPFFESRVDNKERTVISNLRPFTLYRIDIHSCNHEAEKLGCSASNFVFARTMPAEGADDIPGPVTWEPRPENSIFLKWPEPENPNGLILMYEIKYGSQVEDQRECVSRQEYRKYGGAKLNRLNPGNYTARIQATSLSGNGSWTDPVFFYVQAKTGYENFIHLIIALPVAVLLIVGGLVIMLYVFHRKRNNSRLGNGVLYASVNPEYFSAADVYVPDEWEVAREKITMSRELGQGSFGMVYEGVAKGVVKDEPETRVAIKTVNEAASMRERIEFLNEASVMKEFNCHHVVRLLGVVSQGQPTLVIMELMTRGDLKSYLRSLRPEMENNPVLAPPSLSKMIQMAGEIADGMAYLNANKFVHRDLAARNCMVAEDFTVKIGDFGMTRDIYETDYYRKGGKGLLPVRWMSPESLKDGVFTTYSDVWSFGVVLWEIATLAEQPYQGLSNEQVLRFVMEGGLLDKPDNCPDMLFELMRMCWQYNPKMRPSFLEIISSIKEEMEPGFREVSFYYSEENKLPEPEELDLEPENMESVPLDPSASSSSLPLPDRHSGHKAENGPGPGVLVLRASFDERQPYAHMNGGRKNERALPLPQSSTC
HER2 (ErbB2), sequence (P04626 676-1255 limits assumed): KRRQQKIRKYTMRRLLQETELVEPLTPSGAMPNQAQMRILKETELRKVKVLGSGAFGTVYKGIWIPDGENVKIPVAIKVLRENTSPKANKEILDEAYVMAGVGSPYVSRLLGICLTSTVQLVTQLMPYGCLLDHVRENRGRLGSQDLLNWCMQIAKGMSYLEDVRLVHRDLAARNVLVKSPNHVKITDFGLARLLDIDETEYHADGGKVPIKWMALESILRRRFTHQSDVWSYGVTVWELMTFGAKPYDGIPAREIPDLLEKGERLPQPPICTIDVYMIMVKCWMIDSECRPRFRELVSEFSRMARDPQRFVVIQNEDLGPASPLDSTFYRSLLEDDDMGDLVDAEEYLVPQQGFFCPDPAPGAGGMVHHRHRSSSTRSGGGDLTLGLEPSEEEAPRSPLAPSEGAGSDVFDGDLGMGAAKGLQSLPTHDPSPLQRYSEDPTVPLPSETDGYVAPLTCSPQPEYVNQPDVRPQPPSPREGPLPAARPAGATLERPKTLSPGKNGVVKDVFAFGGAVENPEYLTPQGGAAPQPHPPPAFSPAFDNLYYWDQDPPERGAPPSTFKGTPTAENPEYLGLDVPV

Consider `COc1cc2ncnc(Nc3ccc(F)c(Cl)c3)c2cc1OCCCN1CCOCC1` [gefitinib, reference compound], for which the “time until tumors began to re-grow” value in [1] (6.25 mg/kg/day) is “approximately 90 days”. The “tumor regression” value in [1] (6.25 mg/kg/day, compared with AZD9291 5 mg/kg) was “less tumor regression”.

A word on the half-life: it is the time in which the quantity being followed falls by half. A high value points to slow decline. With `C=CC(=O)Nc1cc(Nc2nccc(-c3cn(C)c4ccccc34)n2)c(OC)cc1N(C)CCN(C)C` [AZD9291], the “tumor response” value in [2] was “significant tumor shrinkage”. Further, the IC50 with NCI-H820 cells is ~1000 nM; with EBC-1 cells, ~1000 nM; in series [14], 80 nM. For the same compound, in series [3] (1 μM), the “off-target kinase activity / secondary target profile” value was “minimal off-target kinase activity”. Further, the “inhibition at 1 μM” value in series [3] (ErbB2/4, ACK1, ALK, BLK, BRK, MLK1 and MNK2) is on record as “greater than 60%”. In [1] (following 40 daily doses with 5 mg/kg, sustained out to 200 days), the “tumors with no visible tumor” value is recorded as 8 of 8. In addition, the “lowest dose with tumor shrinkage observed” value in series [1] (once daily, after 14 days) was determined as 2.5 mg/kg/day. The “target inhibition in treated tumors” value in [4] is given as “observed target inhibition”. The body weight loss entry in series [5] is “less than 5 % of starting body weight”. The “change in blood glucose or insulin levels” value in series [6] is on record as “did not cause a significant change”. In addition, the “effect on phospho-EGFR of L861Q, G719S and exon 19 insertion” value in series [7] is recorded as “somewhat less potent compared with the AZ5104 metabolite”. Also, in series [8], the bioavailability entry is on record as “good bioavailability”. The clearance result in series [8] is “moderate clearance”. For the same compound, in series [8], the tissue distribution entry is on record as “widely distributed in tissues”. The half-life in [8] (plasma, po) was ~3 h; in series [9] (human, plasma, po, 20 mg), ≥ 50 h. Moreover, the “phospho-EGFR and downstream signalling” value in [10] (after 6 hours) was “strongly inhibited”. In [10] (after the 30 hour time point), the phospho-EGFR staining entry is on record as “remained significantly diminished”. In addition, the “sensitivity of parental EGFRm+ lines” value in [11] is reported as “sensitive”. Moreover, the “reduction in tumor volume by MRI” value in series [12] (AZD9291 5 mg/kg/day, afatinib 7.5 mg/kg/day, 5 of 5 mice) is listed as ~80%. Moreover, the “activity towards IGF-1R” value at IGF-1R was “did not exhibit significant activity”. Moreover, in [13] (both patients, 20 mg/day), the duration of response result was “approximately 9 months”. The progression-free time entry in series [13] (both patients, 20 mg/day, RECIST 1.1) is listed as “approximately 11 months”. Besides, the tumor shrinkage in [13] (first patient, scan 1) was 39.7%; in series [13] (first patient, scan 2) it was 48.3%; in [13] (first patient, scan 3), 48.3%; in series [13] (first patient, scan 4), 48.3%; in [13] (first patient, scan 5) it was 51.7%; in series [13] (second patient, scan 1) it was 38%. Moreover, the tumor shrinkage in series [13] (second patient, scan 2) is on record as 39.3%; in [13] (second patient, scan 3) it was 56.7%; in series [13] (second patient, scan 4) it was 62%; in series [13] (second patient, scan 5), 59.3%. Also, the “activity against lines harboring non-T790M resistance” value in series [15] is on record as “not effective”. Besides, the tumor growth inhibition entry in the series on A431 xenografts is recorded as “moderate tumor growth inhibition”. In addition, the diarrhea events entry in series [16] (20 mg once daily) was “one reported CTCAE Grade 1 diarrhea”. Also, the rash events result in series [16] (20 mg once daily) is given as “no rash events”. The blood glucose levels entry in series [16] (during the study) is listed as “No significant aberration”. In addition, in [17], the “activity against lines harboring EGFR T790M” value was “low nanomolar activity”. In addition, the “inhibition of phosphorylation of HER2” value on HER2 (ErbB2) was “moderate potency levels”.

`CNC(=O)CN1CCC(Oc2cc3c(Nc4cccc(Cl)c4F)ncnc3cc2OC)CC1` [AZD8931]: the “sensitivity of parental EGFRm+ lines” value in [11] is on record as “sensitive”.

Take `COc1cc2ncnc(Nc3ccc(F)c(Cl)c3)c2cc1NC(=O)/C=C/CN1CCCCC1` [dacomitinib]: the “activity against T790M lines, Sytox” value in [18] is on record as “much less activity against T790M lines”. Moreover, the “potency towards wild-type EGFR, Sytox” value in [19] is reported as “much greater potency towards wild-type EGFR”.

Turning to `C#Cc1cccc(Nc2ncnc3cc(OCCOC)c(OCCOC)cc23)c1` [erlotinib], the tumor sensitivity result in series [20] is “sensitive”; in series [21], “resistant”. In series [11], the “sensitivity of parental EGFRm+ lines” value is listed as “sensitive”.

Turning to `C=CC(=O)Nc1cc(Nc2nccc(-c3c[nH]c4ccccc34)n2)c(OC)cc1N(C)CCN(C)C` [AZ5104], the “tumor response” value in series [2] and in [12] (AZ5104 5 mg/kg/day) was “effective in shrinking tumors” each time. The “potency against EGFRvIII mutant” value in series [22] is given as “higher level of activity”. In [23] (compared to AZD9291), the “potency across cell lines in phenotypic assay” value was “much greater potency across cell lines”. In addition, the half-life result in series [9] (setting [26]) was “at least 50 hours”. The “activity towards IGF-1R” value on IGF-1R is on record as “did not exhibit significant activity”. Further, the IC50 in series [24] is 33 nM. The “inhibition of phosphorylation of HER2” value on HER2 (ErbB2) is listed as “more potency than AZD9291”.

As for `C=CC(=O)Nc1cc(Nc2nccc(-c3cn(C)c4ccccc34)n2)c(OC)cc1N(C)CCNC` [AZ7550], in series [25], the “potency and profile against mutant and wild-type cell lines” value is “very similar potency and profile to AZD9291”. In addition, the “total exposure levels (AUC) compared to the parent compound” value in [8] (circulating metabolite in plasma) is “approximately 68%”. Further, the “potency across cell lines in phenotypic assay” value in series [23] is recorded as “broadly similar”. Further, the half-life result in [9] (setting [26]) is given as “at least 50 hours”.
